US5436254A, “Carbostyril derivatives” (Otsuka Pharmaceutical Company, Ltd., priority 1989, dated 1995)

Target: V1 receptor (Rattus norvegicus, UniProt P30560)
Experiment: biochemical
Type: binding
Settings: not given

V1 receptor, sequence (P30560 whole entry): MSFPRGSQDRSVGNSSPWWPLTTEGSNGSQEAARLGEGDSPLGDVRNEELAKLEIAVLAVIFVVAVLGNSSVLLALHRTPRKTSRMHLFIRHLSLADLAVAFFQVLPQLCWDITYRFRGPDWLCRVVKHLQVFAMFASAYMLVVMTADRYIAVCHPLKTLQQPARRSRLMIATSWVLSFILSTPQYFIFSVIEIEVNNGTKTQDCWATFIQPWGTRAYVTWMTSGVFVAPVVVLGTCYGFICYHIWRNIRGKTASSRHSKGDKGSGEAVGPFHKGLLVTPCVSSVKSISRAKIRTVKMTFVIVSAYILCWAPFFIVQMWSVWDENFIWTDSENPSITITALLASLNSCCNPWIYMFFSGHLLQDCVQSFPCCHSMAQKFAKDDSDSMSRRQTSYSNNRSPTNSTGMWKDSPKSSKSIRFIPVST

Question: `NC(=O)CC[C@H](NC(=O)CCCCCOc1ccc(C(=O)N2CCC(N3C(=O)CCc4ccccc43)CC2)cc1)C(N)=O` [Example 150, 1-{1-[4-(5-[1-(S),3-Dicarbamoyl]propylaminocarbonylpentyloxy)benzoyl]-4-piperidinyl}-3,4-dihydrocarbostyril] was tested. Which IC50 did it give?
Answer: 0.096 µM

Question: `CN(C)C(=O)C1CCN(C(=O)CCCCCOc2ccc(C(=O)N3CCC(N4C(=O)CCc5ccccc54)CC3)cc2)CC1` [Example 276, 1-{1-(4-[5-(4-Dimethylaminocarbonyl-1-piperidinylcarbonyl)pentyloxy]benzoyl)-4-piperidinyl}-3,4-dihydrocarbostyril] was tested. Which IC50 did it give?
Answer: 0.11 µM

Question: How did the IC50 turn out when `O=CNCCCOc1ccc(C(=O)N2CCC(N3C(=O)CCc4ccc(F)cc43)CC2)cc1` [Example 145, 1-{1-[4-(3-Formylaminopropoxy)benzoyl]-4-piperidinyl}-7-fluoro-3,4-dihydrocarbostyril] was run?
Answer: 0.17 µM

Question: For `NC(=O)[C@H](Cc1c[nH]cn1)NC(=O)CCCCCOc1ccc(C(=O)N2CCC(N3C(=O)CCc4ccccc43)CC2)cc1` [Example 149, 1-{1-[4-{5-[1-(S)-Carbamoyl-2{4(1H)-imidazoyl}]ethylaminocarbonylpentyloxy)benzoyl]-4-piperidinyl}-3,4-dihydrocarbostyril], which IC50 is on record?
Answer: 0.15 µM

Question: How did the IC50 turn out when `COC(=O)[C@H](C)NC(=O)CCCOc1ccc(C(=O)N2CCC(N3C(=O)CCc4ccccc43)CC2)cc1` [Example 11, Methyl N-[4-{4-[4-(1,2,3,4-tetrahydro-2-oxo-1-quinolyl)-1-piperidinylcarbonyl]phenoxy}]butanoyl-L-alanate] was run?
Answer: 0.3 µM

Question: With `CC(=O)OCCCCCOc1ccc(C(=O)N2CCC(N3C(=O)CCc4ccccc43)CC2)cc1` [Example 39, 1-{1-[4-(5-Acetoxypentyloxy)benzoyl]-4-piperidinyl}-3,4-dihydrocarbostyril] as the compound, how does the IC50 read?
Answer: 0.15 µM

Question: `COc1ccc(C(=O)N2CCC(N3C(=O)CCc4ccccc43)CC2)c(NC(C)=O)c1` [Example 104, 1-[1-(4-Methoxy-2-acetylaminobenzoyl)-4-piperidinyl]-3,4-dihydrocarbostyril] was tested. Which IC50 did it give?
Answer: 1 µM

Question: `NC(=O)OCCCOc1ccc(C(=O)N2CCC(N3C(=O)CCc4ccccc43)CC2)cc1` [Example 35, 1-{1-[4-(3-Carbamoyloxypropoxy)benzoyl]-4-piperidinyl}-3,4-dihydrocarbostyril] was tested. Which IC50 did it give?
Answer: 0.15 µM

Question: How did the IC50 turn out when `O=C(c1ccc(OCCCCCS(=O)(=O)c2cc[n+]([O-])cc2)cc1)N1CCC(N2C(=O)CCc3ccccc32)CC1` [Example 288, 1-{1-(4-[5-(Pyridine-N-oxide-4-ylsulfonyl)pentyloxy]benzoyl)-4-piperidinyl}-3,4-dihydrocarbostyril] was run?
Answer: 0.048 µM

Question: With `O=C(c1ccc(OCCCCC(O)CN2CCNCC2)cc1)N1CCC(N2C(=O)CCc3ccccc32)CC1` (stereo not drawn) [Example 173, 1-{1-[4-(5-Hydroxy-6-(1-piperazinyl)hexyloxy]benzoyl]-4-piperidinyl}-3,4-dihydrocarbostyril.dioxalate] as the compound, how does the IC50 read?
Answer: 0.039 µM

Question: For `COc1ccc(C(=O)N2CCC(N3C(=O)CCc4ccccc43)CC2)c(OCCCC(N)=O)c1` [Example 67, 1-{1-[2-(3-Carbamoylpropoxy)-4-methoxybenzoyl]-4-piperidinyl}-3,4-dihydrocarbostyril], which IC50 is on record?
Answer: 0.47 µM

Question: How did the IC50 turn out when `O=C(c1ccc(C=NO)cc1)N1CCC(N2C(=O)CCc3ccccc32)CC1` [Example 108, 1-[1-(4-Hydroxyiminomethylbenzoyl)-4-piperidinyl]-3,4-dihydrocarbostyril] was run?
Answer: 1.4 µM

Question: For `O=C(c1ccc(OCCCCCN2CCCC(O)C2)cc1)N1CCC(N2C(=O)CCc3ccccc32)CC1` (stereo not drawn) [Example 240, 1-{1-(4-[5-(3-Hydroxy-1-piperidinyl)pentyloxy]benzoyl)-4-piperidinyl}-3,4-dihydrocarbostyril], which IC50 is on record?
Answer: 0.048 µM

Question: For `O=C(c1ccc(OCCCCCN2CCN(c3ccccn3)CC2)cc1)N1CCC(N2C(=O)CCc3ccccc32)CC1` [Example 234, 1-{1-(4-[5-(4-[2-Pyridyl]-1-piperazinyl)pentyloxy]benzoyl)-4-piperidinyl}-3,4-dihydrocarbostyril], which IC50 is on record?
Answer: 0.18 µM

Same assay, conditions: [H]3-Arg-vasopressin 2×10^-10 M, rat liver plasma membrane, 37° C., 10 minutes, pH 8.0; read-out: IC50

Question: For “1-[1-(4-Propargylbenzoyl)-4-piperidinyl]-3,4-dihydrocarbostyril [Example 96]”, which IC50 is on record?
Answer: 0.6 µM
